US20190151294A1, “TREATMENT OF ALCOHOLISM AND DEPRESSION AND/OR DYSPHORIC MOOD USING IBUDILAST” (MEDICINOVA, INC., priority 2016, published 2019)

Tests used:
[1] = system: non-treatment-seeking individuals with AUD; assay: Phase 1b study: stress reactivity assessment (SR); format: in vivo, human; conditions: 50 mg BID
Source text: Personal information collected at the time of admission (day 1) to the CRTC was used to generate personalized scripts of neutral and stressful conditions. Participants were asked to identify a recent stressful experience and to rate them on a 0 to 10 Likert scale, where a rating of 10 is considered to be the most stressful experience. Only stressful events rated≥8 were used in script development. Data on physical symptoms associated with the stressful and neutral events were also collected for script development.
During the study, each exposure consisted of 5-minute tape-recorded scripts recounting the recent stressful (or neutral) events in the participants' lives, including cognitions and physical feelings. […]
The following measures of mood, urge to drink, and physiological reactivity were administered at baseline and post-imagery for both the stress and neutral conditions: (1) The Profile of Mood States, Short Version (POMS) collected data on (a) positive and negative mood; (2) The Alcohol Urge Questionnaire (AUQ) measured subjective levels of alcohol cravings at the present moment (i.e., following stress imagery); (3) Cortisol levels were assessed by collecting saliva samples and heart rate and blood pressure were measured using a Dynamap Adult Vital Signs Monitor. […]

[2] = system: high-alcohol-drinking (HAD1) rats; assay: Voluntary ethanol consumption in high-alcohol-drinking (HAD1) rats; format: in vivo, rat; conditions: for dose dependence of effect on ethanol intake (2-way mixed ANOVA): p<0.001
Method: To perform the study, adult male P and HAD1 rats were randomly assigned to receive one of the following four doses of ibudilast—0 mg/Kg, 3 mg/Kg, 6 mg/Kg, or 9 mg/Kg with eight rats assigned to each dose. Each dosing group was balanced to average a 2 h/day ethanol (15% v/v) intake. Water was concurrently available to the rats and Mazola corn oil was used as the vehicle.
The study was divided into four test phases. In the maintenance test phase rats in the treatment group were injected ibudilast subcutaneously (2 mL/kg s.c.), using standard solutions that deliver 3 mg/Kg, 6 mg/Kg or 9 mg/Kg of ibudilast, 60 min before each ethanol test session and the same dose of ibudilast was administered subcutaneously to the rats 8 hours later. Rats in the control group, however, are administered 2 mL/Kg Mazola corn oil subcutaneously. This protocol was carried out for 4 consecutive days. Following the maintenance test phase, is a two week no drug recovery phase during which rats are permitted access to ethanol and the amount of ethanol consumed by the rats was measured.
The recovery phase is followed by a two week forced ethanol abstinence phase. Following forced abstinence, the effects of ibudilast on ethanol drinking were examined by re-introducing ethanol to rats for a period of 5 consecutive days (i.e., the Relapse Test phase). Each animal received the same dose of ibudilast during maintenance and relapse test phases.

CC(C)C(=O)c1c(C(C)C)nn2ccccc12 [ibudilast, Ibudilast]
stress-induced AUQ craving ([1]; day 5 stress-exposure): did not affect | positive mood during stress procedures ([1]; p<0.05, FIG. 6): increased positive mood | reduction of ethanol intake ([2]; HAD1 rats, 5-day Relapse Test phase): about 50% | dose dependence of effect on ethanol intake (2-way mixed ANOVA) ([2]; HAD1 rats, Relapse Test phase): dose dependent reduction in ethanol intake | reduction of ethanol intake ([2]; HAD1 rats, maintenance test phase, 4 days, s.c. twice daily, vs vehicle): approximately 50% | dose dependence of effect on ethanol intake (2-way mixed ANOVA) ([2]; HAD1 rats, maintenance test phase, 0, 3, 6, 9 mg/Kg): dose dependent reduction of ethanol intake | time course of reduced ethanol intake (Dose x Day interaction) ([2]; HAD1 rats, p=0.023, data not shown): most robust on the first day | 24-hour food intake ([2]; HAD rats, especially at the 9 mg/Kg dose, effect diminished over the 5-day test phase): transitory reductions
